Where two headings read alike, the source gives them in different places.
How the values were obtained:
cathepsin K [1] = biological target: T1, cathepsin K (Homo sapiens, UniProt P43235); details: value from WO 02057270; read-out: Ki indicated in WO 02057270; cited from earlier work
T1 sequence (P43235 115-329): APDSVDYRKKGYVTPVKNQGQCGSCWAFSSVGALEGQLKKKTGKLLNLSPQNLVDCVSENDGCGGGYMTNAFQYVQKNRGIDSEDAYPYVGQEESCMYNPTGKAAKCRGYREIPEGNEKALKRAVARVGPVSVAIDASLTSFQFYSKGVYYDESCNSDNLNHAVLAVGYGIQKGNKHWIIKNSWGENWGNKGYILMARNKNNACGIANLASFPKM

cathepsin K [2] = biological target: T1, cathepsin K; test: Cathepsin K proteolytic activity, inhibition studies (Ki) with fluorogenic peptide substrate; type: biochemical; set-up: made in house; host or cells: not fixed: E coli, Pichia or Baculovirus systems named as options; details: side by side trials in the same assay system; read-out: Cathepsin K K^1
Method: Convenient assays for cathepsin K are carried out using human recombinant enzyme, such as that described in PDB.
The recombinant cathepsin K can be expressed in a variety of commercially available expression systems including E coli, Pichia and Baculovirus systems. The purified enzyme is activated by removal of the prosequence by conventional methods.
Standard assay conditions for the determination of kinetic constants used a fluorogenic peptide substrate, typically H-D-Ala-Leu-Lys-AMC, and were determined in either 100 mM Mes/Tris, pH 7.0 containing 1 mM EDTA and 10 mM 2-mercaptoethanol or 100 mMNa phosphate, imM EDTA, 0.1% PEG4000 pH 6.5 or 100 mM Na acetate, pH 5.5 containing 5 mM EDTA and 20 mM cysteine, in each case optionally with […] as stabiliser. The enzyme concentration used was 5 nM. The stock substrate solution was prepared at 10 mM in DMSO. Screens were carried out at a fixed substrate concentration of 60 μM and detailed kinetic studies with doubling dilutions of substrate from 250 μM. The total DMSO concentration in the assay was kept below 3%. […] Product fluorescence (excitation at 390 nm, emission at 460 nm) was monitored with a Labsystems Fluoroskan Ascent fluorescent plate reader. […]
Potential inhibitors are screened using the above assay with variable concentrations of test compound. […] Ki values were calculated according to equation 1 […]

Ki (cathepsin K [2])	Compound	Ki (cathepsin K [1])
66 nM	CC(C)CC(NC(=O)c1ccc(Oc2ccccc2)cc1)C(=O)N1CC[C@H]2OCC(=O)[C@H]21 (stereo partly drawn)	100 nM
5.3 nM	CC(C)CC(NC(=O)c1ccc(Oc2ccccc2)cc1)C(=O)N1C[C@H](F)[C@H]2OCC(=O)[C@H]21 (stereo partly drawn)	–

Source: US7915300B2, “Cysteine protease inhibitors” (Medivir AB, priority 2004, dated 2011)
